This is an account of results in patent US9128097B2, “Method and kit for assessing viable cells” (ChemoMetec A/S, priority 2008, dated 2015).

For one assay, the system named is Jurkat (JM) cells. Description: Staining of proliferating Jurkat cells with labelling agent and propidium iodide, fluorescence microscopy. As to conditions: 10 μL agent (100 μg pr. mL DMSO) added to 90 μL cells, only exception PI positive cells. It counts as cell-based. Here is the method: (§1) Materials and Methods. Jurkat (JM) cells were grown at 37° C. in a humidified air atmosphere with 5% CO2 in RPMI (Invitrogen, #61870) supplemented with 10% heat-inactivated fetal bovine serum (Invitrogen, #10108-165). 90 μL proliferating Jurkat cells (cell density 1.2×10^6, 99% viable determined using the NC-100 NucleoCounter system following the manufacturer's (ChemoMetec A/S) protocol) were added 10 μL NAM (N-(9-acridinyl)maleimide, Sigma, #01665, CAS no. 49759-20-8) dissolved in DMSO (100 μg NAM pr. mL DMSO) and mixed by pipetting. Cells were loaded into a NucleoCassette, containing the DNA stain propidium iodide (PI). The cells were investigated using an Olympus IX50 fluorescence microscope, and images were captured using a Lumenera CCD camera and in-house developed software. PI and NAM fluorescence were detected using, respectively, U-MWG2 (green long pass: 510-550 nm) and U-MNUA2 (UV band pass, 330-385 nm) filter cubes (Olympus).
as §1, with “1.0×10^6,” for “1.2×10^6,”, “(ChemoMetec)” for “(ChemoMetec A/S)”, “CPM (7-diethylamino-3-[4′-maleimidylphenyl]-4-methylcoumarin, Chemodex Ltd.,” for “NAM (N-(9-acridinyl)maleimide, Sigma, #01665,”, “76877-33-3)” for “49759-20-8)”, “CPM” for “NAM”
as §1, with “1.1×10^6, 98%” for “1.2×10^6, 99%”, “(ChemoMetec)” for “(ChemoMetec A/S)”, “PM (N-(1-Pyrenyl)maleimide, Sigma P7908” for “NAM (N-(9-acridinyl)maleimide, Sigma, #01665,”, “42189-56-0)” for “49759-20-8)”, “PM” for “NAM”, “Cells were loaded into a NucleoCassette, containing the DNA stain propidium iodide (PI).” left out
Materials and Methods. […] 90 μL proliferating Jurkat cells (cell density 1.1×10^6, 98% viable determined using the NC-100 NucleoCounter system following the manufacturer's (ChemoMetec) protocol) were added 10 μL CPI (7-diethylamino-3-((4′-(iodoacetyl)amino)phenyl)-4-methylcoumarin, Sigma 78264 CAS no. 76877-34-4) dissolved in DMSO (100 μg CPI pr. mL DMSO) and mixed by pipetting. […] The cells were investigated using an Olympus IX50 fluorescence microscope, and images were captured using a Lumenera CCD camera and in-house developed software. PI and CPI fluorescence were detected using, respectively, U-MWG2 (green long pass: 510-550 nm) and U-MNUA2 (UV band pass, 330-385 nm) filter cubes (Olympus). […]

A further assay concerns HEK293 cells. Description: NAM/PI staining of outgrown HEK293 cells, fluorescence microscopy. It counts as cell-based, Human. As to conditions: HEK293 cells treated with 0.25% Triton X-100; 10 μg/mL NAM. As to the method: Materials and Methods. HEK293 cells were grown at 37° C. in a humidified air atmosphere with 5% CO2 in DMEM (Invitrogen, #31966) supplemented with 10% heat-inactivated fetal bovine serum (Invitrogen, #10108-165). Cells were harvested with 0.5 mL of trypsin (Invitrogen, #25300) and neutralized with 5 mL medium (DMEM+10% FCS) two days after they had reached full confluency. These outgrown HEK293 cells (cell density 1.6×10^6, 78% viable determined using the NC-100 NucleoCounter system following the manufacturer's (ChemoMetec) protocol) were stained with 10 μg/mL NAM (Sigma, #01665). Another cell sample were treated with 0.25% Triton X-100 (Sigma, #T9284) and hereafter added 10 μg/mL NAM. After staining, each cell sample was loaded into a NucleoCassette, containing the DNA stain propidium iodide (PI). The cells were investigated using an Olympus IX50 fluorescence microscope, and images were captured using a Lumenera CCD camera and in-house developed software. PI and NAM fluorescence were detected using, respectively, U-MWG2 (green long pass: 510-550 nm) and U-MNUA2 (UV band pass, 330-385 nm) filter cubes (Olympus).

For assay [1], the system named is bone marrow derived dendritic cells (BM-DCs). Description: Staining of bone marrow derived dendritic cells with labelling agent and PI. As to conditions: dendritic cells 97% viable; 10 μL mCB (100 μg pr. mL DMSO) to 90 μL cells; incubated at room temperature for 1 hour. It counts as cell-based, murine. From the text:
Materials and Methods. Dendritic cells were developed from murine bone marrow derived cells as described by “Lutz, M. B., N. Kukutsch, A. L. Ogilvie, S. Rossner, F. Koch, N. Romani, and G. Schuler. 1999. An advanced culture method for generating large quantities of highly pure dendritic cells from mouse bone marrow. J Immunol Methods 223:77-92”. Bone marrow cells were harvested aseptically in the laminar flow hood as described in example 11. Washed and resuspended bone marrow cells were resuspended in RPMI 1640 (Invitrogen, #61870) supplemented with 10% heat-inactivated fetal bovine serum (Invitrogen, #10108-165), 100 U/mL penicillin and 100 μg/mL streptomycin (Invitrogen, #15140-122). […] 90 μL dendritic cells (cell density 1.2×10^6, 97% viable determined using the NC-100 NucleoCounter system following the manufacturer's (ChemoMetec A/S) protocol) were added 10 μL NAM (N-(9-acridinyl)maleimide, Sigma, #01665, CAS no. 49759-20-8) dissolved in DMSO (100 μg NAM pr. mL DMSO) and mixed by pipetting. […] The cells were investigated using an Olympus IX50 fluorescence microscope, and images were captured using a Lumenera CCD camera and in-house developed software. PI and NAM fluorescence were detected using, respectively, U-MWG2 (green long pass: 510-550 nm) and U-MNUA2 (UV band pass, 330-385 nm) filter cubes (Olympus). […]

For the molecule `CCN(CC)c1ccc2c(C)c(-c3ccc(NC(=O)CI)cc3)c(=O)oc2c1` [CPI, 7-diethylamino-3-((4′-(iodoacetyl)amino)phenyl)-4-methylcoumarin], in the assay with Jurkat (JM) cells, the “staining of cells (UV filter) versus PI positive cells” value is recorded as “nearly all cells were stained by CPI”. On the same count and under the same terms, for `CCN(CC)c1ccc2c(C)c(-c3ccc(N4C(=O)C=CC4=O)cc3)c(=O)oc2c1` [CPM, 7-diethylamino-3-[4′-maleimidylphenyl]-4-methylcoumarin] the value was “nearly all cells were stained by CPM”. For the molecule `CC[N+](C)(CC)CCC[n+]1c(-c2ccccc2)c2cc(N)ccc2c2ccc(N)cc21.[I-].[I-]` [PI, propidium iodide], the “staining of Triton X-100 treated cells” value in the assay with HEK293 cells was “PI positive”. On to `O=C1C=CC(=O)N1c1ccc2ccc3cccc4ccc1c2c34` [PM, N-(1-Pyrenyl)maleimide], for which, in the assay on Jurkat (JM) cells, the “staining of cells (UV filter) versus PI positive cells” value is listed as “nearly all cells were stained by PM”. Take `Cc1c(C)n2c(CCl)c(C)c(=O)n2c1=O` [mCB, monochlorobimane]: the “staining of cells (UV filter) versus PI positive cells” value in assay [1] is given as “nearly all the dendritic cells were stained by mCB”.
